Source: patent publication US20260042745A1, “PYRROLIDINE-2-CARBOXAMIDE DERIVATIVES AS PROSTAGLANDIN E2 RECEPTOR 4 (EP4) AGONISTS FOR THE TREATMENT OF GASTROINTESTINAL AND PULMONARY DISEASES” (NXERA PHARMA UK LIMITED, priority 2022, published 2026)

Columns and labels:
[1] = Unidirectional Caco-2 cell permeability assay; type: in vitro ADME; conditions: human, apical pH 6.5, basolateral pH 7.4, 1 hour, 37° C., n=2
Protocol: Caco-2 cells (ECACC) were seeded onto 24-well Transwell plates at 2×10^5 cells per well and used in confluent monolayers after a 21 day culture at 37° C. under 500 CO2. Test compounds were incubated at 10 μM, 0.2% DMSO final, n=2 in assay buffer (Hanks balanced salt solution supplemented with 25 mM HEPES, adjusted to pH 6.5). Hanks balanced salt solution supplemented with 25 mM HEPES, adjusted to pH 7.4 (0.2% DMSO final) was used for the basolateral chamber (as receiver).
Incubations were performed at 37° C., with samples removed from both donor and acceptor chambers at T=0 and 1 hour and compound analysed by mass spectrometry (LC-MS/MS) including an analytical internal standard ([…] carbamazepine).
Apparent permeability (Papp) values are shown in Table 3 and were determined from the relationship:
Where V is the volume of each Transwell compartment (apical 125 μL, basolateral 600 μL), and concentrations are the relative MS responses for compound (normalized to internal standard) in the donor chamber before incubation and acceptor chamber at the end of the incubation Area=area of cells exposed for drug transfer (0.33 cm^2).
Lucifer Yellow (LY) was added to the apical buffer in all wells to assess viability of the cell layer. As LY cannot freely permeate lipophilic barriers, a high degree of LY transport indicates poor integrity of the cell layer and wells with a LY Papp>10×10^−6 cm/s were rejected.
Compound recovery from the wells was determined from MS responses (normalized to internal standard) in donor and acceptor chambers at the end of incubation compared to response in the donor chamber pre-incubation.

human EP4 = target: T1, human EP4 (Homo sapiens, UniProt P35408); test: cAMP Gs functional assay (HTRF cAMP dynamic-2) in EP4-transfected HEK293 cells; type: cell-based; conditions: HEK293 cells transfected with EP4 BacMam virus; for EC50: 30 min at 37° C., HTRF cAMP, read-out: cAMP human EP4 pEC50 (converted); for cAMP human EP4 Emax: positive control PGE2
T1 construct: expressed in transfected cells; host or cells: HEK293 cells transduced with EP4 BacMam baculovirus
Protocol: Cloning, Baculovirus generation, large scale infection of HEK293 cells and membrane preparation: Human prostaglandin E2 receptor 4 (EP4) was cloned into pBacMam expression vector (GeneScript, UK). Transposition of EP4 DNA was performed using Invitrogen's Bac-to-Bac Baculovirus Expression Systems. P0 baculovirus was generated by transfecting SF9 Cells with bacmid DNA using Cellfectin II transfection reagent (ThermoFisher Scientific, UK). Following P0 generation P1 virus was then generated ready for large scale infection and membrane preparation. HEK293 cells were grown in DMEM (ThermoFisher Scientific, UK), supplemented with 10% heat inactivated fetal bovine serum (FBS). Cells were infected at a seeding density of 3.5 million cells/mL in 500 cm^3 flasks at 5% v/v EP4 Bacman. Expression was carried out over a 36 hour period at 37° C. with 5% CO2. The cells were removed using PBS and a cell scrapper. The cell culture was centrifuged at 2500 RPM for 10 mins at 4° C. The supernatant was then poured off and the pellet stored at −80° C. The pellet was defrosted and re-suspended in 15 mL of homogenising buffer (20 mM HEPES, 10 mM EDTA, pH 7.4). Then homogenised in mechanical homogeniser (VMR) for 10 seconds. The membrane was centrifuged in centrifuge tubes at 40,000 g for 15 mins at 4° C. The supernatant was poured away and re-suspended in 15 mL of homogenising buffer and homogenised for 20 seconds. The membrane was then centrifuged at 40,000 g for 45 mins at 4° C. The membrane was then re-suspended in 3 mL of storage buffer (20 mM HEPES, 0.1 mM EDTA, pH 7.4) mixing well. The resulting membranes were then stored at −80° C.
cAMP Gs Functional Assay: cAMP production following EP4 receptor activation was determined using the Homogeneous Time-Resolved Fluorescence (HTRF) cAMP dynamic-2 assay (Cisbio, France). HEK293 cells were transfected using a 0.5% EP4 Bacman virus for 36 hours, before dissociating the cells, and freezing at −150° C.
On the day of testing, increasing concentration of test compounds, alongside positive controls ([…] PGE2 (Tocris, Abingdon, UK)) and negative control (DMSO (Sigma-Aldrich, UK) were added to a ProxiPlate-384 Plus, White 384-shallow well Mircoplate, (PerkinElmer, USA) using the ECHO dispense.
Cells were defrosted in a water bath and resuspended in DMEM supplemented with 10% FBS before centrifuging at 1200 RPM for 5 mins to form a pellet. The pellet was resuspended in assay buffer (DMEM+0.5 mM IBMX (Tocris, Abingdon, UK)) to 0.5×10^6 cells/mL. Cell suspension, for a final assay concentration of 5000 cell/well was added using the multidrop to the pre-dispensed assay plate. The plate was then incubated at 37° C. for 30 mins, with 5% CO2. The cAMP production was determined as manufacturer's instructions, before plates were read on a PheraStar fluorescence plate reader (BMG LabTech, Germany).

T1 sequence (P35408 whole entry): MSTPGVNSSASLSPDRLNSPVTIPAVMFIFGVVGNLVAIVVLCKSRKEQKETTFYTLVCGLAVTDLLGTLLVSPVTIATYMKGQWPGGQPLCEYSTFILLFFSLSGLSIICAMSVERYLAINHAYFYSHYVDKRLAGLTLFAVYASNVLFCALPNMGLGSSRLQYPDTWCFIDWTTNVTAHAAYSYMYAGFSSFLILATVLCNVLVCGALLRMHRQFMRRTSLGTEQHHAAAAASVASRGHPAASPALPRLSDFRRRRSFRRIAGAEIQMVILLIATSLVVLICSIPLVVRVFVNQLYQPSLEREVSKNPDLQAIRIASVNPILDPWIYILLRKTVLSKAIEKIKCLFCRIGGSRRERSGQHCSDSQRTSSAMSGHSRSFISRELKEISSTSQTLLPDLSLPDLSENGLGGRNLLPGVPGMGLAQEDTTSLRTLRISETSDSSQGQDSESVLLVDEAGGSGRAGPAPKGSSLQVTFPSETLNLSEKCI

SMILES	Papp A→B at 1 h, 10 μM [1] [×10⁻⁶ cm/s]	EC50 (human EP4) [nM]	cAMP human EP4 Emax (human EP4) [%]
Cc1cc(S(N)(=O)=O)ccc1-c1cccc(CN2CCC[C@@H]2C(=O)NCc2ccc(C(=O)O)c(O)c2)c1 [Example 16, (R)-2-hydroxy-4-((1-((2′-methyl-4′-sulfamoyl-[1,1′-biphenyl]-3-yl)methyl)pyrrolidine-2-carboxamido)methyl)benzoic acid]	0.17	20	98
Cc1cc(S(N)(=O)=O)ccc1-c1cccc(CN2CCC[C@@H]2C(=O)N[C@@H](C)c2ccc(C(=O)O)c(O)c2)c1 [Example 18, 2-hydroxy-4-((S)-1-((R)-1-((2′-methyl-4′-sulfamoyl-[1,1′-biphenyl]-3-yl)methyl)pyrrolidine-2-carboxamido)ethyl)benzoic acid]	0.11	3.16	95
C[C@H](NC(=O)[C@H]1CCCN1Cc1ccc(O)c(-c2ccc(S(N)(=O)=O)cc2)c1)c1ccc(C(=O)O)cc1 [Example 19]	< 0.12	100	90
Cc1cc(S(N)(=O)=O)ccc1-c1cc(O)cc(CN2CCC[C@@H]2C(=O)N[C@@H](C)c2ccc(C(=O)O)cc2)c1 [Example 20, 4-((S)-1-((R)-1-((5-hydroxy-2′-methyl-4′-sulfamoyl-[1,1′-biphenyl]-3-yl)methyl)pyrrolidine-2-carboxamido)ethyl)benzoic acid]	< 0.1	0.631	98
Cc1cc(C(N)=O)ccc1-c1cc(O)cc(CN2C[C@H](O)C[C@@H]2C(=O)N[C@@H](C)c2ccc(C(=O)O)cc2)c1 [Example 21, 4-((S)-1-((2R,4R)-1-((4′-carbamoyl-5-hydroxy-2′-methyl-[1,1′-biphenyl]-3-yl)methyl)-4-hydroxypyrrolidine-2-carboxamido)ethyl)benzoic acid]	< 0.11	7.94	96
C[C@H](NC(=O)[C@H]1CCCN1Cc1cccc(-c2ccc(S(N)(=O)=O)cc2O)c1)c1ccc(C(=O)O)cc1 [Example 22]	< 0.1	126	85
Cc1cc(C(N)=O)ccc1-c1cc(O)cc(CN2CC3CC2(C(=O)N[C@@H](C)c2ccc(C(=O)O)cc2)C3)c1 [Example 23, (S)-4-(1-(2-((4′-carbamoyl-5-hydroxy-2′-methyl-[1,1′-biphenyl]-3-yl)methyl)-2-azabicyclo[2.1.1]hexane-1-carboxamido)ethyl)benzoic acid]	0.245	0.158	91
Cc1cc(S(N)(=O)=O)ccc1-c1cncc(CN2CCC[C@@H]2C(=O)N[C@@H](C)c2ccc(C(=O)O)cc2)c1 [Example 24, 4-((S)-1-((R)-1-((5-(2-methyl-4-sulfamoylphenyl)pyridin-3-yl)methyl)pyrrolidine-2-carboxamido)ethyl)benzoic acid]	0.16	25.1	99
Cc1cc(S(N)(=O)=O)ccc1-c1cccc(CN2CC3CC2(C(=O)NC2(c4ccc(C(=O)O)cc4)CC2)C3)c1 [Example 27, 4-(1-(2-((2′-methyl-4′-sulfamoyl-[1,1′-biphenyl]-3-yl)methyl)-2-azabicyclo[2.1.1]hexane-1-carboxamido)cyclopropyl)benzoic acid]	< 0.28	6.31	85
Cc1cc(C(N)=O)ccc1-c1cccc(CN2CC3CC2(C(=O)N[C@@H](C)c2ccc(C(=O)O)cc2)C3)c1 [Example 28, (S)-4-(1-(2-((4′-carbamoyl-2′-methyl-[1,1′-biphenyl]-3-yl)methyl)-2-azabicyclo[2.1.1]hexane-1-carboxamido)ethyl)benzoic acid]	< 0.12	25.1	76
Cc1cc(C(N)=O)ccc1-c1cccc(CN2CC3CC2(C(=O)NC2(c4ccc(C(=O)O)cc4)CC2)C3)c1 [Example 29, 4-(1-(2-((4′-carbamoyl-2′-methyl-[1,1′-biphenyl]-3-yl)methyl)-2-azabicyclo[2.1.1]hexane-1-carboxamido)cyclopropyl)benzoic acid]	< 0.11	6.31	91
Cc1cc(S(N)(=O)=O)ccc1-c1cccc(CN2CCC[C@@H]2C(=O)NC2(c3ccc(C(=O)O)cc3)CC2)c1 [Example 30, (R)-4-(1-(1-((2′-methyl-4′-sulfamoyl-[1,1′-biphenyl]-3-yl)methyl)pyrrolidine-2-carboxamido)cyclopropyl)benzoic acid]	0.29	0.501	99
Cc1cc(C(N)=O)ccc1-c1cccc(CN2CCC[C@@H]2C(=O)NC2(c3ccc(C(=O)O)cc3)CC2)c1 [Example 31, (R)-4-(1-(1-((4′-carbamoyl-2′-methyl-[1,1′-biphenyl]-3-yl)methyl)pyrrolidine-2-carboxamido)cyclopropyl)benzoic acid]	0.45	0.02	98
Cc1cc(O)ccc1-c1cc(O)cc(CN2CCC[C@@H]2C(=O)N[C@@H](C)c2ccc(C(=O)O)cc2)c1 [Example 33, 4-((S)-1-((R)-1-((4′,5-dihydroxy-2′-methyl-[1,1′-biphenyl]-3-yl)methyl)pyrrolidine-2-carboxamido)ethyl)benzoic acid]	0.32	0.0316	97
Cc1cc(C(N)=O)ccc1-c1cc(O)cc(CN2CCC[C@@H]2C(=O)N[C@@H](C)c2ccc(C(=O)O)c(O)c2)c1 [Example 34, 4-((S)-1-((R)-1-((4′-carbamoyl-5-hydroxy-2′-methyl-[1,1′-biphenyl]-3-yl)methyl)pyrrolidine-2-carboxamido)ethyl)-2-hydroxybenzoic acid]	0.24	0.2	100
Cc1cc(O)ccc1-c1cc(O)cc(CN2CCC[C@@H]2C(=O)N[C@@H](C)c2ccc(C(=O)O)c(O)c2)c1 [Example 35, 4-((S)-1-((R)-1-((4′,5-dihydroxy-2′-methyl-[1,1′-biphenyl]-3-yl)methyl)pyrrolidine-2-carboxamido)ethyl)-2-hydroxybenzoic acid]	< 0.1	0.0501	97
